In US12617777B2, “GPR84 antagonists and uses thereof” (Liminal BioSciences Limited, priority 2021, dated 2026):

Target: T1, human GPR84 receptor (Homo sapiens, UniProt Q9NQS5)
T1 construct: host or cells: HEK293, transient transfection
Experiment: Gαi biosensor BRET assay in HEK293 cells (antagonism of ZQ-16)
Format: cell-based
Details: for inhibition at 25 µM: HEK293, single concentration 25 μM (designated I); for inhibition at 2 µM: HEK293, single concentration 2 μM (designated A); for inhibition at 10 µM: HEK293, single concentration 10 μM (designated F); for IC50: HEK293 cells, antagonism of 200 nmol/L ZQ-16
How it was run: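 Antagonist mode: test compound 5 min at 37° C, followed by ZQ-16 agonist (200 nmol/L, 5 min, room temperature), in HEK293 cells transfected with GPR84 plus Rluc8-tagged Gαi2, GFP10-Gγ2 and Gβ1. Readout as GFP10/Rluc8 emission ratio after 5 μmol/L coelenterazine 400A, net of Rluc8-only and vehicle signal.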

T1 sequence (Q9NQS5 whole entry): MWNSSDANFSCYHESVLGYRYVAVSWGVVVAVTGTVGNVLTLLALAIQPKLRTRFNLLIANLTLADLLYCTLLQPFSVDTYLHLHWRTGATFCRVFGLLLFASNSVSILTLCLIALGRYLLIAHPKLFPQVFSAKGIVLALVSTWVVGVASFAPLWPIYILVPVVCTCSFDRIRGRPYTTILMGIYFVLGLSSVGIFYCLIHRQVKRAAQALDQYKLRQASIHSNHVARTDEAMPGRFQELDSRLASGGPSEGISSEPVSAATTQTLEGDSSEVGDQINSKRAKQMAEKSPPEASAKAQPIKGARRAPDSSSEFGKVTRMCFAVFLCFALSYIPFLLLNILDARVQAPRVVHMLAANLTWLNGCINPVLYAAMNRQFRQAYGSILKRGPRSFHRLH

| Compound | inhibition at 10 µM [%] | other results |
| --- | --- | --- |
| Cc1ncn(CC2CCCCO2)c1-c1ccc(C#CC2CC2)cc1 (centres unmarked) [Compound I-335] | – | inhibition at 25 µM: 25 to 50% |
| Clc1cc(C#CC2CC2)cnc1-c1cn(CC2OCC3(CCC3)O2)nn1 (centres unmarked) [Compound I-806] | – | inhibition at 2 µM: > 75% |
| Cc1ccc(C#CC2CC2)cc1Cc1cn(C[C@H]2CCCCO2)nn1 [Compound I-587] | 50 to 75 | IC50: 300 to 1000 nM |
| Cc1cc(N2CC(N(C)Cc3ccccc3)C2)ccc1-c1cn(CC2CCCCO2)nn1 (centres unmarked) [Compound I-185] | ≤ 25 | – |
| Cc1cc(N2CC(C)(C)C2)c(C#CC2CC2)cc1-c1cn(C[C@H]2CCCCO2)nn1 [Compound I-435] | ≤ 25 | – |
| Cc1ccccc1-c1cn(CC2CCCCO2)nn1 (centres unmarked) [Compound I-467] | ≤ 25 | – |
| Cc1cc(C#CC2CC2)cc(F)c1-c1cn(CC2CCCCO2)nn1 (centres unmarked) [Compound I-575] | > 75 | – |
| Cc1cc(C#CC2CC2)ccc1-c1cn(CC2COc3ccccc3O2)nn1 (centres unmarked) [Compound I-101] | 25 to 50 | – |
| CN(c1cccc(C#CC2CC2)c1)c1cn(CC2OCC(C)(C)CO2)nn1 [Compound I-824] | ≤ 25 | – |
| CCc1ccc(C#CC2CC2)cc1Cc1cn(CC2CCCCO2)nn1 (centres unmarked) [Compound I-475] | – | inhibition at 2 µM: 25 to 50% |
| Cc1ccc(C#N)cc1N(C)c1cn(CC2OCC(C)(C)CO2)nn1 [Compound I-811] | ≤ 25 | – |
| Cc1cc(N2CCN([C@H](C)c3ccccn3)CC2)ccc1-c1cn(CC2OCC(C)(C)CO2)nn1 [Compound I-715] | > 75 | – |
| Cc1cc(N2CC(C)(C)C2)c(C)cc1-c1cn(CC2OCC(C)(C)CO2)nn1 [Compound I-685] | > 75 | IC50: 1000 to 3000 nM |
| C(#CC1CC1)c1ccc(-c2cn(C[C@H]3COCCO3)nn2)cc1 [Compound I-22] | – | inhibition at 25 µM: ≤ 25% |
| CNC1CCN(c2ccc(-c3cn(CC4CCCCO4)nn3)c(C)c2)CC1 (centres unmarked) [Compound I-128] | ≤ 25 | – |
| CC1(C)COC(Cn2cc(-c3ncc(C#CCN4CC(C)(C)C4)cc3OC3CC3)nn2)OC1 [Compound I-709] | – | inhibition at 2 µM: > 75%; IC50: ≤ 300 nM |
| Cc1cc(C#CC2CC2)ccc1-c1cn(CC2CCC(=O)O2)nn1 (centres unmarked) [Compound I-539] | ≤ 25 | – |
| Cc1cc(N2CC3CCC2CN3Cc2ccccn2)ccc1-c1cn(CC2CCCCO2)nn1 (centres unmarked) [Compound I-550] | 50 to 75 | – |
| NC(=O)c1cc(C#CC2CC2)ccc1-c1cn(CC2CCCCO2)nn1 (centres unmarked) [Compound I-234] | ≤ 25 | – |
| Cc1cc(C#CCNC(=O)Oc2ccccc2)ccc1-c1cn(CC2CCCCO2)nn1 (centres unmarked) [Compound I-619] | > 75 | IC50: ≤ 300 nM |
| Cc1c(-c2cccc(C#CC3CC3)c2)cnn1CC1CCCCO1 (centres unmarked) [Compound I-322] | – | inhibition at 25 µM: ≤ 25% |
| Cc1cc(N2CCC(Cc3ccccn3)CC2)cnc1-c1cn(CC2CCCCO2)nn1 (centres unmarked) [Compound I-503] | > 75 | – |
| C(#CC1CC1)c1ccc(-c2cn(C[C@H]3CCCCO3)nn2)cc1 [Compound I-24] | – | inhibition at 25 µM: > 75%; IC50: > 3000 nM |
| COC(c1cn(CC2OCC(F)(F)CO2)nn1)c1cc(C#CC2CC2)ccc1C (centres unmarked) [Compound I-725] | > 75 | IC50: 300 to 1000 nM |

| Compound | inhibition at 10 µM [%] | other results |
| --- | --- | --- |
| Cc1ccc(C(C)(C)O)cc1N(C)c1cn(CC2OCC(C)(C)CO2)nn1 [Compound I-830] | 50 to 75 | – |
| Cc1cc(C#CC2CC(F)(F)C2)cnc1-c1cn(CC2OCC(C)(C)CO2)nn1 [Compound I-653] | > 75 | – |
| Cc1cc(N2CC(C)(OCc3ccccn3)C2)c(F)cc1-c1cn(CC2CCCCO2)nn1 (centres unmarked) [Compound I-731] | > 75 | IC50: 300 to 1000 nM |
| Cc1cc(C#CC2CC2)ccc1-c1nnn(CC2CCCCO2)n1 (centres unmarked) [Compound I-9] | ≤ 25 | – |
| COCCn1cc(-c2ccc(C#CC3CC3)cc2)nn1 [Compound I-103] | ≤ 25 | – |
| CO[C@@H](c1cn(C[C@@H]2CCCCO2)nn1)c1cc(C#CC2CC2)ccc1C [Compound I-513] | – | inhibition at 2 µM: 25 to 50%; IC50: > 2000 nM |
| Cc1ccc(C#CC2CC2)cc1Cc1cn(CC2OCC(C)(C)CO2)nn1 [Compound I-669, 4-(5-(cyclopropylethynyl)-2-methylbenzyl)-1-((5,5-dimethyl-1,3-dioxan-2-yl)methyl)-1H-1,2,3-triazole] | – | inhibition at 2 µM: > 75%; IC50: ≤ 300 nM |
| COC(c1cccc(C#CCO)c1)c1cn(CC2CCCCO2)nn1 (centres unmarked) [Compound I-491] | ≤ 25 | – |
| Cc1cc(OCc2ccccn2)ccc1-c1cn(CC2CCCCO2)nn1 (centres unmarked) [Compound I-54] | – | inhibition at 25 µM: 50 to 75%; IC50: 300 to 1000 nM |
| Cc1cc(N2CC(C)(CO)C2)cnc1-c1cn(CC2OCC(C)(C)CO2)nn1 [Compound I-595] | > 75 | – |
| CC(C)Oc1cc(N2CC(C)(C)C2)cnc1-c1cn(CC2CCCCO2)nn1 (centres unmarked) [Compound I-630] | > 75 | – |
| COC1CCCN(c2ccc(-c3cn(CC4CCCCO4)nn3)c(C)c2)C1 (centres unmarked) [Compound I-428] | 25 to 50 | – |
| CCc1cc(C#CCOC2CC2)ccc1-c1cn(CC2OCC(C)(C)CO2)nn1 [Compound I-780] | > 75 | IC50: 300 to 1000 nM |
| Cc1cc(N2CCN(Cc3ccn(C)n3)CC2)ccc1-c1cn(CC2CCCCO2)nn1 (centres unmarked) [Compound I-582] | > 75 | – |
| CC(=O)c1ccc(C)c(N(C)c2cn(CC3OCC(C)(C)CO3)nn2)c1 [Compound I-825] | – | inhibition at 2 µM: > 75% |
| COC(=O)N1CCOC(Cn2cc(-c3ccc(C#CC4CC4)cc3C)nn2)C1 (centres unmarked) [Compound I-105] | ≤ 25 | – |
| Cc1cc(C#CCN2CCCC2C(=O)O)ccc1-c1cn(CC2CCCCO2)nn1 (centres unmarked) [Compound I-247] | ≤ 25 | – |
| Cc1cc(C#CC2CC2)ccc1-c1cn(Cc2cncn2C)nn1 [Compound I-528] | ≤ 25 | – |
| Cc1cc(C#CC2CC2)ccc1-c1cn(CC2CN(C)CCO2)nn1 (centres unmarked) [Compound I-181] | ≤ 25 | – |
| C(#CC1CC1)c1ccc(-c2cn(CC3CCc4ccccc4O3)nn2)cc1 (centres unmarked) [Compound I-41] | – | inhibition at 25 µM: ≤ 25% |
| Cc1cc(C#CC2CC2)ccc1-c1cn(CC2OCC3(CC3)CO2)nn1 [Compound I-686] | > 75 | IC50: 300 to 1000 nM |
| CCc1cc(C#CCNC2CC2)ccc1-c1cn(CC2OCC(C)(C)CO2)nn1 [Compound I-851] | ≤ 25 | – |
| CC#Cc1ccc(C)c(N(C)c2cn(CC3OCC4(CC4)CO3)nn2)c1 [Compound I-850] | > 75 | – |
| Cc1cc(C#CC2CC2)ccc1-n1cc(CN2CCOCC2)nn1 [Compound I-297] | – | inhibition at 25 µM: ≤ 25% |

| Compound | inhibition at 10 µM [%] | other results |
| --- | --- | --- |
| Cc1cc(C#CC2CC2)ccc1-c1cn(CC2OCCCO2)nn1 [Compound I-91] | – | IC50: 1000 to 3000 nM |
| CCn1c(C#CC2CC2)cnc1-c1cn(CC2CCCCO2)nn1 (centres unmarked) [Compound I-285] | > 75 | – |
| COc1ccc(C#CC2CC2)cc1-c1cn(CC2CCCCO2)nn1 (centres unmarked) [Compound I-125] | ≤ 25 | – |
| Cc1cc(N2CC(C)(Nc3ccccc3)C2)ccc1-c1cn(CC2CCCCO2)nn1 (centres unmarked) [Compound I-537, 3-methyl-1-(3-methyl-4-(1-((tetrahydro-2H-pyran-2-yl)methyl)-1H-1,2,3-triazol-4-yl)phenyl)-N-phenylazetidin-3-amine] | > 75 | IC50: 300 to 1000 nM |
| Cc1cc(C#CCNC2CC2)ccc1-c1cn(CC2OCC(C)(C)CO2)cn1 [Compound I-820] | – | inhibition at 2 µM: > 75%; IC50: 300 to 1000 nM |
| Cc1cc(N2CC3(CCCN3Cc3ccccn3)C2)ccc1-c1cn(CC2CCCCO2)nn1 (centres unmarked) [Compound I-590] | ≤ 25 | – |
| C(#CC1CC1)c1ccc(-c2nnn(CC3COCCO3)n2)cc1 (centres unmarked) [Compound I-3] | – | inhibition at 25 µM: ≤ 25% |
| Cc1c(-c2ccc(C#CC3CC3)cc2)ncn1CC1CCCCO1 (centres unmarked) [Compound I-334] | – | inhibition at 25 µM: > 75% |
| COC(C)(c1cn(CC2CCCCO2)nn1)c1cc(C#CC2CC2)ccc1C (centres unmarked) [Compound I-680] | 50 to 75 | – |
| Cc1cc(C#CC2CC2)cnc1-c1cn(CC2OCCCO2)nn1 [Compound I-414] | 50 to 75 | – |
| C(#CC1CC1)c1ccc(-n2cc(CC3CCOCC3)nn2)cc1 [Compound I-294] | – | inhibition at 25 µM: ≤ 25% |
| Cc1cc(C2CCOCC2)ccc1-c1cn(CC2CCCCO2)nn1 (centres unmarked) [Compound I-485] | ≤ 25 | – |
| CN(C)c1cc(C#CC(C)(C)O)ccc1-c1cn(CC2OCC(C)(C)CO2)nn1 [Compound I-719] | > 75 | IC50: 1000 to 3000 nM |
| CNC(C)(C)COc1ccc(-c2cn(CC3CCCCO3)nn2)c(C)c1 (centres unmarked) [Compound I-288] | 25 to 50 | – |
| Cc1cc(N2CC3(C2)CN(c2ccccn2)C3)ccc1-c1cn(CC2OCC(C)(C)CO2)nn1 [Compound I-663] | > 75 | IC50: > 3000 nM |
| Cc1ccccc1C#Cc1cn(CC2OCC(C)(C)CO2)nn1 [Compound I-791] | – | inhibition at 2 µM: > 75% |
| COCC1(C)CN(c2ccc(-c3cn(CC4OCC(C)(C)CO4)nn3)c(N(C)C)c2)C1 [Compound I-706] | > 75 | IC50: 300 to 1000 nM |
| COC(c1cn(CC2CCCCO2)nn1)c1cc(C#CC(C)(C)O)ccc1F (centres unmarked) [Compound I-632] | ≤ 25 | – |
| Cc1cc(N2CCC[C@H](N(C)Cc3ccccc3)C2)ccc1-c1cn(C[C@H]2CCCCO2)nn1 (stereo in doubt) [Compound I-240] | > 75 | – |
| Cc1cc(N2CCC2)ccc1-c1cn(CC2CCCCO2)nn1 (centres unmarked) [Compound I-157] | 50 to 75 | – |
| CN(C)c1cc(C#CCNc2ccccc2)ccc1-c1cn(CC2CCCCO2)nn1 (centres unmarked) [Compound I-203] | – | inhibition at 2 µM: > 75%; IC50: 1000 to 3000 nM |
| C(#CC1CC1)c1cnc(-c2cn(CC3OCC4(CC4)CO3)nn2)c(OC2CC2)c1 [Compound I-785] | – | inhibition at 2 µM: > 75%; IC50: ≤ 300 nM |
| CC(O)(c1cccc(C#CC2CC2)c1)c1cn(CC2CCCCO2)nn1 (centres unmarked) [Compound I-496] | 25 to 50 | – |
| Cc1cc(C#CCn2cc(-c3ccccc3)nn2)cnc1-c1cn(CC2CCCCO2)nn1 (centres unmarked) [Compound I-720] | > 75 | IC50: 300 to 1000 nM |
